Results from patent publication US20250222119A1, “ENGINEERING OF MULTIFUNCTIONAL PEPTIDES FOR CONTROLLED DRUG DELIVERY” (The Johns Hopkins University, priority 2022, published 2025).

Key:
[1] = test system: normotensive Dutch Belted rabbits; assay: Rabbit IOP measurements after intracameral injection or topical dosing; format: in vivo; conditions: single intracameral injection
Method: For the ICM injection procedure, rabbits were anesthetized with ketamine/xylazine and received topical anesthesia with 0.5% proparacaine hydrochloride. […] After the procedure, topical bacitracin-neomycin-polymyxin ophthalmic ointment was applied to both eyes to prevent infection and dry eyes. […] The IOP were measured immediately before the topical dosing (0 h), and at 2, 4, 6 and 8 h after the eyedrop administration.

ARPE-19 cells = assay: Cell-penetration assay with biotinylated peptides in induced and non-induced ARPE-19 cells; format: cell-based; conditions: C-terminal biotinylated peptide 100 μM, 6 h, 37° C.
Method: Four 96 well plates per group were seeded at 0.01×10^6 cells/well. ARPE-19 cells were either cultured with DMEM:F12 medium containing 10% FBS according to protocol provided by the vendor (non-induced) or cultured in DMEM high glucose, pyruvate media with […] of ferric ammonium citrate (Wolkow, N. et al., Exp Eye Res 128, 92-101, (2014)) for 2 months (induced) (Kim, Y. C. et al. Drug Deliv Transl Res, doi:10.1007/s13346-021-00987-6 (2021)). The expression of melanin was confirmed visually with bright field microscopy and by measuring absorbance at 475 nm (>0.4 a.u., not shown). Within each plate, 12 wells were randomly selected to quantify the cell numbers with an automated cell counter (Countess 3 Automated Cell Counter, Thermo Fisher) for normalization in the cell uptake study. Next, 100 μL (100 μM in pH 6.5 PBS) of each of the 127 C-terminal biotinylated peptides was added to n=3 wells for both the induced and non-induced ARPE-19 cells for 6 h at 37° C. The cells were then washed thoroughly 5 times with PBS solution to remove extracellular peptide. To quantify cell-associated peptides, the cells were lysed with 100 μL of RIPA lysis buffer at 4 C for 48 h. […] The mean intracellular concentration values were grouped by cell types (induced or non-induced), and the two-sample Wilcoxon test (Mann-Whitney) was calculated using the R function wilcox.test. Intracellular concentration values were also plotted against experimental melanin binding and the relationship was quantified using a simple linear model and its corresponding R^2.
It was next characterized how the predicted cell-penetrating properties of the peptides affected cell uptake in a retinal pigment epithelium (RPE) cell line (ARPE-19). ARPE-19 cells were cultured using standard methods (non-induced, n=3) and using culture conditions that induce melanin production (induced, n=3) (Kim, Y. C. et al., Drug Deliv Transl Res, doi:10.1007/s13346-021-00987-6 (2021)).

Molecule | time for the average ΔIOP to return to baseline [1] [days] | peak reduction in IOP from baseline (ΔIOP) ([1]; at 2 days, n=5) [mmHg] | cell uptake (intracellular peptide concentration) (ARPE-19 cells; non-induced ARPE-19 cells) [pmol/100K cells] | cell uptake (intracellular peptide concentration) (ARPE-19 cells; induced (melanin-producing) ARPE-19 cells) [pmol/100K cells]
Brc1c(NC2=NCCN2)ccc2nccnc12 [brimonidine] | 8 | −2.6±1.65 |  | 
FSGKRRKRKPR [HR97] |  |  | 82.5±15.8 | 
YGRKKRRQRRR [TAT47-57] |  |  | 58.7±7.43 | 478±20.8
